Assay: Elution of dyes from loaded microspheres in PBS
Type: physicochemical
Conditions: from APTA43 microspheres; 1 ml in 200 mL PBS; initial loading 8.6 umols per mL of microspheres
Description: Microspheres of each polymer formulation were loaded with equal quantities of each dye. 1 ml samples of dye-loaded microspheres were added to 200 mL of PBS in an amber jar. The microsphere suspensions were rolled to provide continuous mixing. At each time point the eluent was sampled and assayed by UV/Vis spectrophotmetery as above. The volume of sampled eluent was replaced with fresh PBS to maintain the elution volume. FIG. 5 illustrates the elution profiles of each dye from APTA43 microspheres.

O=S(=O)([O-])c1cc(S(=O)(=O)[O-])c2ccc3c(O)cc(O)c4ccc1c2c43.[Na+].[Na+] [Formulation P2, 6,8-dihydroxypyrene-1,3-disulfonic acid disodium salt]
initial loaded amount released within 60 minutes: 9%

O.O=S(=O)([O-])c1cc(S(=O)(=O)[O-])c2ccc3c(S(=O)(=O)[O-])cc(S(=O)(=O)[O-])c4ccc1c2c43.[Na+].[Na+].[Na+].[Na+] [Formulation P4, 1,3,6,8-pyrenetetrasulfonic acid hydrate tetrasodium salt]
initial loaded amount released within 60 minutes: approximately 3%

O=S(=O)([O-])c1cc(O)c2ccc3c(S(=O)(=O)[O-])cc(S(=O)(=O)[O-])c4ccc1c2c34.[Na+].[Na+].[Na+] [Formulation P3, 8-hydroxypyrene-1,3,6-trisulfonic acid trisodium salt]
initial loaded amount released within 60 minutes: approximately 3%

O=S(=O)([O-])c1ccc2ccc3cccc4ccc1c2c34.[Na+] [Formulation P1, 1-pyrenesulfonic acid sodium salt]
initial loaded amount released within 60 minutes: 80%
